Patent US7329682B2, “Method for inhibiting 5-lipoxygenase using a benzoxazole derivative” (EWHA University-Industry Collaboration Foundation, priority 2003, dated 2008)
Read-outs that look alike come from different tables or passages of the source.

Legend:
5-lipoxygenase = target: T1, 5-lipoxygenase (Mus musculus, UniProt P48999); assay: Measurement of 5-lipoxygenase inhibition activity (free LTC4 from SCF-stimulated bone marrow-derived mast cells, enzyme immunoassay); assay type: cell-based, mouse (male BALB/cJ mice)
T1 construct: over 98% of cells were confirmed as mast cells originated from bone marrow; endogenous in cells; host or cells: bone marrow-derived mast cells from male BALB/cJ mice
T1 sequence (P48999 1-674): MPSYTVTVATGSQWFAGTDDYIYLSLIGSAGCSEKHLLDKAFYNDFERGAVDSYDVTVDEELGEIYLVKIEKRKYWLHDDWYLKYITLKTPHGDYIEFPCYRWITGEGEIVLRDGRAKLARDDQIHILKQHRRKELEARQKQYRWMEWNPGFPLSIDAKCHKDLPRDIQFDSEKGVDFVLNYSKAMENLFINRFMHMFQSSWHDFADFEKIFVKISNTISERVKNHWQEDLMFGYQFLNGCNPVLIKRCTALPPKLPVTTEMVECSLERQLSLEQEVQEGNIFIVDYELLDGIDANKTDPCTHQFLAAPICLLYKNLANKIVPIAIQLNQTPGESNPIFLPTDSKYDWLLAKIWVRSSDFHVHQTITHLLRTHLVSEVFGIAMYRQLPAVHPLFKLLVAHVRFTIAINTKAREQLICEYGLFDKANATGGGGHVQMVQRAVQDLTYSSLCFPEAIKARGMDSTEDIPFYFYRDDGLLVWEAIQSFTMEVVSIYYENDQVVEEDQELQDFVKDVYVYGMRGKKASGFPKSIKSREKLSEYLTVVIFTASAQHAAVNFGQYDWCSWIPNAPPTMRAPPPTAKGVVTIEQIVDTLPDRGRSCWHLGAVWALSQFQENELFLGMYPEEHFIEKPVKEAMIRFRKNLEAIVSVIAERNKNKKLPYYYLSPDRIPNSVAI
Method: Measurement of 5-lipoxygenase Inhibition Activity
The obtained cells were suspended in the enriched medium to a concentration of 1×10^6 cells/ml. […] 100 ng/ml of stem cell factor (SCF) was added to the culture medium, and then, the culture was centrifuged at 120 xg for 20 min at 4° C. Then, the supernatant was separated and the amount of free LTC4 was determined using an LTC4 enzyme immunoassay kit (Cayman Chemical, Ann Arbor, Mich., U.S.A.). The stem cell factor (SCF) was recombinantly expressed by the baculovirus/insect cell expression system. After 20-min stimulation, the supernatants were isolated for further analysis by enzyme immunoassay.

[1] = mast cells originated from bone marrow of BALB/cJ mice, 1×10^6 cells/ml, 30 min preincubation at 37° C., 100 ng/ml SCF stimulation 20 min, free LTC4 by enzyme immunoassay, vs non-treated control, read-out: IC50

SMILES | IC50 (5-lipoxygenase; [1]) [µM] | melting point [°C] | IC50 (5-lipoxygenase) [µM]
CCc1ccc(Nc2nc3cccnc3s2)cc1 [Example 2] | 10.3 | – | –
Clc1ccc(Nc2nc3cccnc3s2)cc1Cl [Example 3] | 1.58 | 270 to 272 | –
c1ccc(N=Nc2ccc(Nc3nc4ccccc4o3)cc2)cc1 [Example 4, 4-phenylazophenyl aminobenzoxazole] | 6.28 | – | –
c1ccc(Nc2nc3ccccc3o2)cc1 [Example 5] | 8.91 | – | –
CCc1ccc(Nc2nc3ccccc3o2)cc1 [Example 6] | 1.21 | 123 to 125.3 | –
Clc1ccc2oc(Nc3ccc(N=Nc4ccccc4)cc3)nc2c1 [Example 7] | 12.6 | 191 to 192.3 | –
CCc1ccc(Nc2nc3cc(Cl)ccc3o2)cc1 [Example 9] | – | 196 to 198 | 0.95
O=[N+]([O-])c1ccc2oc(Nc3ccc(N=Nc4ccccc4)cc3)nc2c1 [Example 10] | 28.4 | – | –
CCc1ccc(Nc2nc3cc([N+](=O)[O-])ccc3o2)cc1 [Example 11] | 23.9 | 161 to 163.5 | –
c1ccc(-c2nc3ccccc3s2)cc1 [Example 12, 2-phenyl benzothiazole] | 7.26 | – | –
Fc1ccc(-c2nc3ccccc3s2)cc1 [Example 13] | 11.2 | 128 to 130.5 | –
O=[N+]([O-])c1ccc(-c2nc3ccccc3s2)cc1 [Example 14] | – | – | 11
FC(F)Sc1ccccc1-c1nc2ccccc2s1 [Example 15] | 1.54 | 188 to 190 | –
N#Cc1ccc(-c2nc3ccccc3s2)cc1 [Example 16] | 4.32 | 120 to 123 | –
CCCCOc1ccc(-c2nc3ccccc3s2)cc1 [Example 17] | 9.3 | – | –
O=[N+]([O-])c1ccc(Cl)c(-c2nc3ccccc3s2)c1 [Example 18] | 2.5 | – | –
Cc1ccc(-c2nc3ccccc3s2)cc1N [Example 19] | 4.16 | – | –
Cc1ccc(-c2nc3ccccc3s2)cc1 [Example 20] | 5.27 | – | –
COc1ccc(-c2nc3ccccc3s2)cc1OC [Example 21] | 2.76 | 132 to 133 | –
ClCc1cccc(-c2nc3ccccc3s2)c1 [Example 22] | 2.49 | – | –
CCSc1ncccc1-c1nc2ccccc2s1 [Example 23] | 6.11 | – | –
Clc1ccccc1/C=C/c1nc2ccccc2s1 [Example 25] | 2.92 | – | –
